Where “and” joins values, the source holds several entries; their conditions need not be identical. Equal entries are not always repeated.
Test system: 967376-340-R-J2-PDC multicell spheroid viability
Test: Anticancer human tumor 967376-340-R-J2-PDC patient-derived colon adenocarcinoma cell line growth inhibition [PI3K]
Details: for viability, T/C: stronger effect = lower value
Procedure, shortened: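 High-throughput combination screen: PI3K inhibitors crossed with targeted small molecules on complex spheroids of tumor cells, HUVEC and MSCs at 37 degrees C, 5% CO2. Top concentration was at or near clinical Cmax (otherwise 10 microM), with half-log decrements.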

[1] = curve of first compound, second compound 0.0316 µM
[2] = curve of first compound, second compound 0.1 µM
[3] = curve of first compound, second compound 0.316 µM
[4] = curve of first compound, second compound 1 µM
[5] = second compound 0.0316 µM, first compound 0.0316 µM
[6] = second compound 0.0316 µM, first compound 0.1 µM
[7] = second compound 0.0316 µM, first compound 0.316 µM
[8] = second compound 0.0316 µM, first compound 1 µM
[9] = second compound 0.0316 µM, first compound 3.16 µM
[10] = second compound 0.0316 µM, first compound 10 µM
[11] = second compound 0.1 µM, first compound 0.0316 µM
[12] = second compound 0.1 µM, first compound 0.1 µM
[13] = second compound 0.1 µM, first compound 0.316 µM
[14] = second compound 0.1 µM, first compound 1 µM
[15] = second compound 0.1 µM, first compound 3.16 µM
[16] = second compound 0.1 µM, first compound 10 µM
[17] = second compound 0.316 µM, first compound 0.0316 µM
[18] = second compound 0.316 µM, first compound 0.1 µM
[19] = second compound 0.316 µM, first compound 0.316 µM
[20] = second compound 0.316 µM, first compound 1 µM
[21] = second compound 0.316 µM, first compound 3.16 µM
[22] = second compound 0.316 µM, first compound 10 µM
[23] = second compound 1 µM, first compound 0.0316 µM
[24] = second compound 1 µM, first compound 0.1 µM
[25] = second compound 1 µM, first compound 0.316 µM
[26] = second compound 1 µM, first compound 1 µM
[27] = second compound 1 µM, first compound 3.16 µM
[28] = second compound 1 µM, first compound 10 µM
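Also: spheroids exposed to agents for 7 days before read-out.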
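For viability, T/C in this document: luminescence used as surrogate of cell viability.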

For Cn1ncc(Cl)c1-c1cc(C(=O)NC(CN)Cc2cccc(F)c2)sc1Cl (stereo unspecified) + CC(Nc1ncnc2nc[nH]c12)c1cc2cccc(Cl)c2c(=O)n1-c1ccccc1, the IC50 [1] was > 10 µM, the IC50 [2] was > 10 µM and the IC50 [3] was > 10 µM. For the same compound, the IC50 [4] was 9.58 µM, the IC50 (curve of first compound, second compound 3.16 µM) was > 10 µM and the IC50 (curve of first compound, second compound 10 µM) was 6.67 µM. The viability, T/C [5] was 99%, the viability, T/C [6] was 95% and the viability, T/C [7] was 93.6%. It also gave a viability, T/C [8] of 91.1%, a viability, T/C [9] of 66.9% and a viability, T/C [10] of 62.5%. For the same compound, the viability, T/C [11] was 122%, the viability, T/C [12] was 97.3% and the viability, T/C [13] was 104%. It also gave a viability, T/C [14] of 86.7%, a viability, T/C [15] of 84.8% and a viability, T/C [16] of 71.1%. For the same compound, the viability, T/C [17] was 87.2%, the viability, T/C [18] was 97.7% and the viability, T/C [19] was 86.9%. The viability, T/C [20] was 81.4%, the viability, T/C [21] was 78.3% and the viability, T/C [22] was 64.6%. It also gave a viability, T/C [23] of 85.3%, a viability, T/C [24] of 104% and a viability, T/C [25] of 101%. For the same compound, the viability, T/C [26] was 86.4%, the viability, T/C [27] was 79.1% and the viability, T/C [28] was 48.8%. The viability, T/C (second compound 3.16 µM, first compound 0.0316 µM) was 101%, the viability, T/C (second compound 3.16 µM, first compound 0.1 µM) was 93.7% and the viability, T/C (second compound 3.16 µM, first compound 0.316 µM) was 104%. For the same compound, the viability, T/C (second compound 3.16 µM, first compound 1 µM) was 73.5%, the viability, T/C (second compound 3.16 µM, first compound 3.16 µM) was 73.2% and the viability, T/C (second compound 3.16 µM, first compound 10 µM) was 53.6%. The viability, T/C (second compound 10 µM, first compound 0.0316 µM) was 79.4%, the viability, T/C (second compound 10 µM, first compound 0.1 µM) was 88.5% and the viability, T/C (second compound 10 µM, first compound 0.316 µM) was 96.7%. The viability, T/C (second compound 10 µM, first compound 1 µM) was 86.3%, the viability, T/C (second compound 10 µM, first compound 3.16 µM) was 60.3% and the viability, T/C (second compound 10 µM, first compound 10 µM) was 44.4%.

For CC(=O)c1c(C)c2cnc(Nc3ccc(N4CCNCC4)cn3)nc2n(C2CCCC2)c1=O, the viability, T/C (compound 0.000316 µM) was 101% [middle of 4 runs], the viability, T/C (compound 0.001 µM) was 95.8% [middle of 4 runs] and the viability, T/C (compound 0.00316 µM) was 103% [middle of 4 runs]. The viability, T/C (compound 0.01 µM) was 98.9% [middle of 4 runs], the viability, T/C (compound 0.0316 µM) was 118% (2×) and 120% and 81.9% and the viability, T/C (compound 0.1 µM) was 79% [middle of 4 runs]. The IC50 (curve of compound) was > 0.1 µM.

CCCS(=O)(=O)Nc1ccc(F)c(C(=O)c2c[nH]c3ncc(-c4ccc(Cl)cc4)cc23)c1F + COc1c(OCCCN2CCOCC2)ccc2c3n(c(=NC(=O)c4cnc(N)nc4)nc12)CCN3 was tested, and the IC50 (curve of first compound, second compound 0.00316 µM) was > 10 µM, the IC50 (curve of first compound, second compound 0.01 µM) was > 10 µM and the IC50 [1] was > 10 µM. The IC50 [2] was > 10 µM, the IC50 [3] was < 0.0316 µM and the IC50 [4] was < 0.0316 µM. It also gave a viability, T/C (second compound 0.00316 µM, first compound 0.0316 µM) of 94.8%, a viability, T/C (second compound 0.00316 µM, first compound 0.1 µM) of 94.7% and a viability, T/C (second compound 0.00316 µM, first compound 0.316 µM) of 82.8%. For the same compound, the viability, T/C (second compound 0.00316 µM, first compound 1 µM) was 101%, the viability, T/C (second compound 0.00316 µM, first compound 3.16 µM) was 74.3% and the viability, T/C (second compound 0.00316 µM, first compound 10 µM) was 59.6%. For the same compound, the viability, T/C (second compound 0.01 µM, first compound 0.0316 µM) was 104%, the viability, T/C (second compound 0.01 µM, first compound 0.1 µM) was 78.9% and the viability, T/C (second compound 0.01 µM, first compound 0.316 µM) was 81.8%. The viability, T/C (second compound 0.01 µM, first compound 1 µM) was 73.6%, the viability, T/C (second compound 0.01 µM, first compound 3.16 µM) was 90% and the viability, T/C (second compound 0.01 µM, first compound 10 µM) was 61.8%. For the same compound, the viability, T/C [5] was 68.1%, the viability, T/C [6] was 63.4% and the viability, T/C [7] was 73.8%. It also gave a viability, T/C [8] of 79%, a viability, T/C [9] of 69.7% and a viability, T/C [10] of 69.1%. It also gave a viability, T/C [11] of 63.2%, a viability, T/C [12] of 58.5% and a viability, T/C [13] of 77%. The viability, T/C [14] was 51.1%, the viability, T/C [15] was 63% and the viability, T/C [16] was 54%. For the same compound, the viability, T/C [17] was 39.4%, the viability, T/C [18] was 36.5% and the viability, T/C [19] was 57.1%. For the same compound, the viability, T/C [20] was 34.6%, the viability, T/C [21] was 68.1% and the viability, T/C [22] was 58.8%. The viability, T/C [23] was 31.6%, the viability, T/C [24] was 41.6% and the viability, T/C [25] was 25.8%. For the same compound, the viability, T/C [26] was 46.1%, the viability, T/C [27] was 41% and the viability, T/C [28] was 34.8%.

From PubChem BioAssay AID1963962 (Molecular Pharmacology Branch, DTP, NCI, 2024)
